Assay results published in US9382265B2, “Oxazolidone compound, preparing method and application thereof” (SHANGHAI INSTITUTE OF MATERIA MEDICA, CHINESE ACADEMY OF …, priority 2013, dated 2016).
Blank lines part the entries; values can stand above or below the compound they belong to.

Key:
[1] = system: rabbit sodium citrate anticoagulant plasma; experiment: In vitro anticoagulant activity: prothrombin time (PT); format: biochemical; conditions: compound concentration that prolonged the PT time by 1 time vs blank control
Method: The experiment used […]-1 immunomagnetic single channel semi-automated blood coagulation analyzer to measure blood coagulation time. Principle: An excessive amount of tissue thromboplastin (infusion of preparations such as human brain, rabbit brain, placenta, and lung tissue) and calcium ion are added to the plasma to be tested, thereby converting prothrombin into thrombin, and the latter converts fibrinogen into fibrin. The time needed for plasma coagulation is observed as prothrombin time. This experiment is the most commonly used screening test for the evaluation of an extrinsic coagulation system. Test method: To the rabbit sodium citrate anticoagulant plasma (3.8% sodium citrate, 1:9 mixture) were added various concentrations of the compounds to be tested. PT reagents ([…], Beijing) were used to measure the prothrombin activation time. The compound concentration that prolonged the PT time by 1 time, when compared with the blank control, was recorded as PT2, thereby evaluating the anticoagulant activity of the compounds. Rabbit sodium citrate anticoagulant plasma (3.8% sodium citrate plasma, 1:9 mixture) was purchased from Guangzhou Ruite Bio company; […]-1 immunomagnetic single channel semi-automated blood coagulation analyzer and […] blood coagulation 3-item reagents were purchased from Beijing […] instrument company. […] Each concentration of each sample was assayed in 3-6 duplicate wells, and the experiment was independently carried out for 2-3 times.

thrombus formation = experiment: In vivo anticoagulant activity: electrically induced carotid artery thrombus formation time; parameters: species or system rat; conditions: for ED50: Rattus norvegicus, po, male SD rats, intragastric administration, 3 mA electrical stimulation of left common carotid artery 1 h after administration, read-out: ED50 for prolonging the thrombus formation time
Method: The rats were fasted for 12 h, then weighted, and treated by intragastric administration. After 45 min, the rats were anesthetized with chloral hydrate (350 mg/kg), immobilized, and the left common carotid artery was exposed by surgery. The artery and the surrounding tissue were separated by plastic wrap. Electrical stimulation was started 1 h after intragastric administration. The stimulation electrode of the BT87-4 tester for experimental in vivo thrombus formation was placed at the end of the blood vessels proximal to the heart. 3 mA current was used for a 2 min of stimulation. The instrument started the timer automatically when the stimulation began. The stimulation switch was turned off when the stimulation ended. The stimulation electrode was removed, and a thermostat probe was placed at the end of the artery on the stimulation site, which end is distal to the heart. At the time of 600 seconds, the pointer of the thermostat panel was slowly moved to the position of 0. The time from the start of simulation to the alarm of the instrument was recorded as the time of blood vessel blockage (or the time of thrombus formation). If a drug has antithrombosis effect, the time of thrombus formation (time of blood vessel blockage) will be prolonged. IBM SPSS Statistics 20 software was used for the t test of the experimental data.

human recombinant FXa = target: T1, human recombinant FXa (Homo sapiens, UniProt P00742); experiment: FXa inhibitory activity assay (chromogenic substrate, 405 nm); format: biochemical; conditions: inhibitory activity on FXa, preincubated at 37° C. for 10 mins
T1 construct: purchased Calbiochem; host or cells: human plasma
T1 sequence (P00742 235-488 limits assumed): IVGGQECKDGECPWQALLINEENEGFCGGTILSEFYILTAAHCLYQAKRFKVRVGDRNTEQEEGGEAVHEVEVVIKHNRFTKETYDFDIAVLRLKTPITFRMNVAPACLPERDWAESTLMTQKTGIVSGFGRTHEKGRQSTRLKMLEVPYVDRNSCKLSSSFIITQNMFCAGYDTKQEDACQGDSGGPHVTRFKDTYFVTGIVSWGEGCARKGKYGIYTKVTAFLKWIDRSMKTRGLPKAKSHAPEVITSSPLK
T1 sequence (P00742 41-179 partner limits assumed): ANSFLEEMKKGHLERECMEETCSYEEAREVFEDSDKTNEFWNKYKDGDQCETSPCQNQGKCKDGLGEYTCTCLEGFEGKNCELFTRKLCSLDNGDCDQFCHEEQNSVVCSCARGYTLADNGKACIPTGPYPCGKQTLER
Method: Experimental principle and method: FXa cuts the Arg carboxyl end in the substrate N-Z-D-Arg-Gly-Arg-pDA in vitro and releases p-nitrophenylamine which has specific absorption at 405 nm wavelength. The amount of the […] generated is determined at 405 nm to evaluate the activity of the compound to inhibit the human recombinant FXa in vitro.
Human plasma coagulation factor Xa was purchased from Calbiochem; the substrate N-Z-D-Arg-Gly-Arg-pDA was purchased from chromogenic. The subject compound, enzyme and the reaction buffer were mixed and preincubated at 37° C. for 10 mins. The substrate was added. The absorption at 405 nm wavelength was measured continuously over 20 mins. At the same time, a blank control group (without enzyme, 100% inhibition rate) and a negative control group (replace the subject compound with DMSO, 0% inhibition rate) were set up. The reaction system was 100 μl (50 μl of Tris buffer, 10 μl of compound, 20 μl (0.027 U/ml) of enzyme, 20 μl (300 μM) of substrate). Each concentration of each sample was assayed in triplicate. The experiment was carried out for 2 times independently.

[2] = system: rabbit sodium citrate anticoagulant plasma; experiment: In vitro anticoagulant activity: activated partial thromboplastin time (APTT); format: biochemical; conditions: compound concentration that prolonged the APTT time by 1 time vs blank control
Method: The experiment used […]-1 immunomagnetic single channel semi-automated blood coagulation analyzer to measure blood coagulation time. Principle: At 37° C., using Kaolin to activate factors □ and □; using cephalin (partial thromboplastin) to replace platelet factor 3; and in the presence of Ca^2+, the time needed for the coagulation of plasma which lacks of platelet is observed as activated partial thromboplastin time. This experiment is a screening test which is sensitive and commonly used for the endogenous blood coagulation system. Test method: To the rabbit sodium citrate anticoagulant plasma (3.8% sodium citrate, 1:9 mixture) were added various concentrations of the compounds to be tested. APTT reagents ([…], Beijing) were used to measure the […] activation time. The compound concentration that prolonged the APTT time by 1 time, when compared with the blank control, was recorded as APTT2, thereby evaluating the anticoagulant activity of the compounds. Rabbit sodium citrate anticoagulant plasma (3.8% sodium citrate plasma, 1:9 mixture) was purchased from Guangzhou Ruite Bio company; […]-1 immunomagnetic single channel semi-automated blood coagulation analyzer and […] blood coagulation 3-item reagents were purchased from Beijing […] instrument company. […] Each concentration of each sample was assayed in 3-6 duplicate wells, and the experiment was independently carried out for 2-3 times.

in vivo = experiment: in vivo
Method: Healthy male SD rats, body weight 200-220 g, randomly divided into 6 groups with each group 3-4 rats, were administered with the subject compound via intragastric administration and intravenous injection, respectively.
The subject compound was prepared with 5% DMSO/5% Twain 80/90% saline into solution for administration.
The rats were fasted for 12 hrs before experiment, free water-drinking, and were all fed 2 h after administration. Blood sampling time and sample treatment:
intragastric administration: 0.25, 0.5, 1.0, 2.0, 3.0, 4.0, 6.0, 8.0, and 24 h after administration;
intravenous administration: 5 min, 0.25, 0.5, 1.0, 2.0, 4.0, 6.0, 8.0, and 24 h after administration.
At the time points defined above, 0.3 ml of venous blood was taken from the posterior venous plexus of rats to heparinized tubes, centrifuged at 11000 rpm for 5 mins to separate the plasma, which was then frozen at −20° C. in a refrigerator.

[3] = male, SD, rat, in vivo, iv, 3 mg/kg
[4] = male, SD, rat, in vivo, po, 10 mg/kg
[5] = male, SD, rat, in vivo, iv, 4.5 mg/kg
[6] = male, SD, rat, in vivo, po, 9 mg/kg

SMILES: O=C(NC[C@@H]1OC(=O)N2c3ccc(N4CCOCC4=O)cc3OC[C@@H]12)c1ccc(Cl)s1 [Compound 1, 5-chloro-N-(((3S,3aS)-1-oxo-7-(3-oxomorpholin-4-yl)-1,3,3a,4-tetrahydrobenzo[b]oxazolo[3,4-d][1,4]oxazin-3-yl)methyl)thiophene-2-carboxamide]
PT2 [1]: 0.184 µM | ED50 (thrombus formation): 2.97 mg/kg | activity relative to rivaroxaban (thrombus formation; ratio of ED50s for prolonging thrombus formation time, rats): 1.53 times | IC50 (human recombinant FXa): 2.25 ± 0.01 nM | APTT2 [2]: 0.141 µM | F (in vivo; male, SD, rat, in vivo): 63.7% | CLz (in vivo; [3]): 3.35 mL/min/kg | MRT (in vivo; [3]): 1.03 h | T1/2 (in vivo; [3]): 1.00 h | Vss (in vivo; [3]): 0.201 L/kg | Cmax (in vivo; [4]): 11901 ng/mL | MRT (in vivo; [4]): 2.23 h | T1/2 (in vivo; [4]): 1.33 h | Tmax (in vivo; [4]): 0.75 h | AUC0-t (in vivo; rat, in vivo, iv, 3 mg/kg): 15324 ngh/mL | AUC0-∞ (in vivo; rat, in vivo, iv, 3 mg/kg): 15339 ngh/mL | AUC0-t (in vivo; rat, in vivo, po, 10 mg/kg): 32529 ngh/mL | AUC0-∞ (in vivo; rat, in vivo, po, 10 mg/kg): 33044 ngh/mL

F (in vivo; male, SD, rat, in vivo): 42.0% | CLz (in vivo; [5]): 2.28 mL/min/kg | MRT (in vivo; [5]): 3.04 h | Vss (in vivo; [5]): 0.406 L/kg | Cmax (in vivo; [6]): 6927 ng/mL | MRT (in vivo; [6]): 3.4 h | Tmax (in vivo; [6]): 0.67 h | AUC0-t (in vivo; rat, in vivo, iv, 4.5 mg/kg): 31057 ngh/mL | AUC0-∞ (in vivo; rat, in vivo, iv, 4.5 mg/kg): 33562 ngh/mL | AUC0-t (in vivo; rat, in vivo, po, 9 mg/kg): 26119 ngh/mL | AUC0-∞ (in vivo; rat, in vivo, po, 9 mg/kg): 28527 ngh/mL | T1/2 (in vivo; rats, intravenous injection (4.5 mg/Kg)): 1.95 h | T1/2 (in vivo; rats, oral administration (9 mg/Kg)): 2.10 h
SMILES: O=C(NC[C@@H]1OC(=O)N2c3ccc(N4CCCCC4=O)cc3OC[C@@H]12)c1ccc(Cl)s1 [Compound 2, 5-chloro-N-(((3S,3aS)-1-oxo-7-(2-oxopiperidin-1-yl)-1,3,3a,4-tetrahydrobenzo[b]oxazolo[3,4-d][1,4]oxazin-3-yl)methyl)thiophene-2-carboxamide]
PT2 [1]: 1.06 µM | APTT2 [2]: 0.932 µM

IC50 (human recombinant FXa): 12.2 ± 10.5 nM
SMILES: O=C(NC[C@@H]1OC(=O)N2c3ccc(N4CCOCC4=O)cc3OC[C@@H]12)c1ccc(Cl)cc1 [Compound 17, 4-chloro-N-(((3S,3aS)-1-oxo-7-(3-oxomorpholin-4-yl)-1,3,3a,4-tetrahydrobenzo[b]oxazolo[3,4-d][1,4]oxazin-3-yl)methyl)benzamide]

IC50 (human recombinant FXa): 15 ± 1.6 nM
SMILES: O=C(NC[C@@H]1OC(=O)N2c3ccc(N4CC[C@@H](F)CC4=O)cc3OC[C@@H]12)c1ccc(Cl)s1 [Compound 33, 5-chloro-N-(((3S,3aS)-7-((R)-4-fluro-2-oxopiperidin-1-yl)-1-oxo-1,3,3a,4-tetrahydrobenzo[b]oxazolo[3,4-d][1,4]oxazin-3-yl)methyl)-thiophene-2-carboxamide]

IC50 (human recombinant FXa): 19.3 ± 3.39 nM
SMILES: O=C(NC[C@@H]1OC(=O)N2c3ccc(N4CC[C@H](F)CC4=O)cc3OC[C@@H]12)c1ccc(Cl)s1 [Compound 34, 5-chloro-N-(((3S,3aS)-7-((S)-4-fluro-2-oxopiperidin-1-yl)-1-oxo-1,3,3a,4-tetrahydrobenzo[b]oxazolo[3,4-d][1,4]oxazin-3-yl)methyl)-thiophene-2-carboxamide]

IC50 (human recombinant FXa): 19.6 ± 16.9 nM
SMILES: NS(=O)(=O)c1ccccc1-c1ccc2c(c1)OC[C@H]1[C@H](CNC(=O)c3ccc(Cl)s3)OC(=O)N21 [Compound 35, 5-chloro-N-(((3S,3aS)-1-oxo-7-(2-aminosulfonylphenyl)-1,3,3a,4-tetrahydrobenzo[b]oxazolo[3,4-d][1,4]oxazin-3-yl)methyl)thiophene-2-carboxamide]

IC50 (human recombinant FXa): 12.2 ± 4.08 nM
SMILES: CS(=O)(=O)c1ccccc1-c1ccc2c(c1)OC[C@H]1[C@H](CNC(=O)c3ccc(Cl)s3)OC(=O)N21 [Compound 36, 5-chloro-N-(((3S,3aS)-7-(2-(methylsulfonyl)phenyl)-1-oxo-1,3,3a,4-tetrahydrobenzo[b]oxazolo[3,4-d][1,4]oxazin-3-yl)methyl)thiophene-2-carboxamide]

SMILES: O=C(NC[C@H]1CN(c2ccc(N3CCOCC3=O)cc2)C(=O)O1)c1ccc(Cl)s1 [rivaroxaban, reference compound]
PT2 [1]: 0.399 µM | ED50 (thrombus formation): 4.53 mg/kg | APTT2 [2]: 0.315 µM | F (in vivo; male, SD, rat, in vivo): 4.6% | CLz (in vivo; [3]): 4.75 mL/min/kg | MRT (in vivo; [3]): 0.88 h | Vd (in vivo; [3]): 0.25 L/kg | half-life (in vivo; [3]): 0.98 h | Cmax (in vivo; [4]): 440 ng/mL | MRT (in vivo; [4]): 7.01 h | Tmax (in vivo; [4]): 0.56 h | half-life (in vivo; [4]): 4.64 h | AUC0-t (in vivo; rat, in vivo, iv, 3 mg/kg): 10548 ngh/mL | AUC0-∞ (in vivo; rat, in vivo, iv, 3 mg/kg): 10575 ngh/mL | AUC0-t (in vivo; rat, in vivo, po, 10 mg/kg): 1608 ngh/mL | AUC0-∞ (in vivo; rat, in vivo, po, 10 mg/kg): 2242 ngh/mL
